Common to all, as to experiment: Dundee kinase panel
Holding throughout (assay type): biochemical
Holding throughout (conditions): for remaining activity at 1 µM: read-out: residual activity

One assay deals with T1, CHK2 (Homo sapiens, UniProt O96017).
T1 construct: lines 1-140) and Reaction Biology
How it is done: (§1) Compounds were screened at 1 μM. For key hits, pIC50 values were then determined by HTRF as above. […] Stability in mouse and human liver microsomes was determined by Cyprotex.

Another assay concerns the target T2, EPH-B4 (Homo sapiens, UniProt P54760).
T2 construct: lines 1-140) and Reaction Biology
T2 sequence (P54760 16-987): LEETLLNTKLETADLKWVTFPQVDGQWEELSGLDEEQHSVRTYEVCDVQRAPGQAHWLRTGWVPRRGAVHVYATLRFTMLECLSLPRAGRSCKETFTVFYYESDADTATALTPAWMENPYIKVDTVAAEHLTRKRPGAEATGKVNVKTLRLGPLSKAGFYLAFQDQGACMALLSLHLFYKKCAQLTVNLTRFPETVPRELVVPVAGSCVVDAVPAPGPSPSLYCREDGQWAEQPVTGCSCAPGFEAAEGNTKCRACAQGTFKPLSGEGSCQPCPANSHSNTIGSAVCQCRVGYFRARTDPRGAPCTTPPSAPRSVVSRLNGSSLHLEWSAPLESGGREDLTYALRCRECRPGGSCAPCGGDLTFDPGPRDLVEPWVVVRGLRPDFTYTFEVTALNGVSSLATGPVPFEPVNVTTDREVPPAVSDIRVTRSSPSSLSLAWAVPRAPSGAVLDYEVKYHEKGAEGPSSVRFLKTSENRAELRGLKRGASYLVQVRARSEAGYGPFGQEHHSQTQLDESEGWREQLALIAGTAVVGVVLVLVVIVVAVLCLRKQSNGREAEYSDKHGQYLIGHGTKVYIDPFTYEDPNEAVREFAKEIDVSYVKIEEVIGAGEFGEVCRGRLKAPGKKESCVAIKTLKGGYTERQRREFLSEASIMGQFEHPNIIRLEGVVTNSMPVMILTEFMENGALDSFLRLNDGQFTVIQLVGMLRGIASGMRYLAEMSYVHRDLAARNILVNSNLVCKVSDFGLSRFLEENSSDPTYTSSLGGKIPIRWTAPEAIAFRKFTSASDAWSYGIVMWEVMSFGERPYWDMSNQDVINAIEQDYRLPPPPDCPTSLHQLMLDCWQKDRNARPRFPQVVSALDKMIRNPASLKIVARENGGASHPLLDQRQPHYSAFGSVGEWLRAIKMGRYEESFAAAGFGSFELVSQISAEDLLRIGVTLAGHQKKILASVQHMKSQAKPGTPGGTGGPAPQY
How it is done:
as §1

For a further assay, the target named is T3, GCK (Homo sapiens, UniProt Q12851).
T3 construct: lines 1-140) and Reaction Biology
T3 sequence (Q12851 1-820): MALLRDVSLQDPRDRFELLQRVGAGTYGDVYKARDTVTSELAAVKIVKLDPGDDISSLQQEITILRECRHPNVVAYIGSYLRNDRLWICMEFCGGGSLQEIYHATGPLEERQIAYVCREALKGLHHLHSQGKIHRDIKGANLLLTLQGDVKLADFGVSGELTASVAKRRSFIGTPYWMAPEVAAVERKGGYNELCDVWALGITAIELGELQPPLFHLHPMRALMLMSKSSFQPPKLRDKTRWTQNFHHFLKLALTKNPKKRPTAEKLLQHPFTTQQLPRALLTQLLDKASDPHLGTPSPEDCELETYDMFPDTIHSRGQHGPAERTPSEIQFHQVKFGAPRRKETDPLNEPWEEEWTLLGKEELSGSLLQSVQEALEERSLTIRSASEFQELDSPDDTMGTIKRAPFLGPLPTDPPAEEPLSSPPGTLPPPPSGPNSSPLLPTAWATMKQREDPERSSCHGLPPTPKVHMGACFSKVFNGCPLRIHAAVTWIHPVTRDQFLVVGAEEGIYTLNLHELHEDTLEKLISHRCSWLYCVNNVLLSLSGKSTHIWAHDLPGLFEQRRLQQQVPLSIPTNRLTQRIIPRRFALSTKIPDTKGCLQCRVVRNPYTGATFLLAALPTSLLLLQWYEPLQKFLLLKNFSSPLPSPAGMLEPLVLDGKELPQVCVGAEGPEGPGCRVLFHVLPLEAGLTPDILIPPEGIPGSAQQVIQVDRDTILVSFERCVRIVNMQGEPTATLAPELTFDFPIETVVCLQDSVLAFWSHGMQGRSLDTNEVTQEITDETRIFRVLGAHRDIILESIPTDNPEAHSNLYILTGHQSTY
How it is done: as §1

The target of another assay is T4, HIPK1 (Homo sapiens, UniProt Q86Z02).
T4 construct: lines 1-140) and Reaction Biology
How it is done:
as §1

A further assay concerns the target T5, IKKb (Homo sapiens, UniProt O14920).
T5 construct: lines 1-140) and Reaction Biology
T5 sequence (O14920 1-756): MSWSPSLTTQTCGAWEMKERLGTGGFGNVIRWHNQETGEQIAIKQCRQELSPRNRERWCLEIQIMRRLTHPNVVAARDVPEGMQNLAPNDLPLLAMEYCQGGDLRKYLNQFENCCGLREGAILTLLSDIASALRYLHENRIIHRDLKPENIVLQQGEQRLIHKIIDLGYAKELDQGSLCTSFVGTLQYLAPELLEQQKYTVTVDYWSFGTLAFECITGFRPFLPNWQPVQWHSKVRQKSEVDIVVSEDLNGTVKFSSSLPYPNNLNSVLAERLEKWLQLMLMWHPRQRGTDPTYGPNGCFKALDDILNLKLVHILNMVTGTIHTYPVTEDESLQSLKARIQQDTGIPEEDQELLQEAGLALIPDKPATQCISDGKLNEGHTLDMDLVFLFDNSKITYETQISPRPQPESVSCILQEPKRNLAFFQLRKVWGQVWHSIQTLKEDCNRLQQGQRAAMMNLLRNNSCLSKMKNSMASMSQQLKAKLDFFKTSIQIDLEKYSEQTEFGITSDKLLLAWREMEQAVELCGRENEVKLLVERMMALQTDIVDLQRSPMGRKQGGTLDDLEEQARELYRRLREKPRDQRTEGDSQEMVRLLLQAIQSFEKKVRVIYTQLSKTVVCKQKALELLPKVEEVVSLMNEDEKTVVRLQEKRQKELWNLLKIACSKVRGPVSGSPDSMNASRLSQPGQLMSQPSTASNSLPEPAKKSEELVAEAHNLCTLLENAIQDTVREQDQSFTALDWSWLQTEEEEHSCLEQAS
How it is done: as §1

For a further assay, the target named is T6, IR (Homo sapiens, UniProt P06213).
T6 construct: lines 1-140) and Reaction Biology
How it is done:
as §1

A further assay deals with T7, S6K1 (Homo sapiens, UniProt P23443).
T7 construct: lines 1-140) and Reaction Biology
How it is done:
as §1

For the next assay, the target named is T8, SYK (Homo sapiens, UniProt P43405).
T8 construct: lines 1-140) and Reaction Biology
How it is done:
as §1

The target of another assay is T9, TIE2 (Homo sapiens, UniProt Q02763).
T9 construct: lines 1-140) and Reaction Biology
How it is done: as §1

T7 sequence (P23443 whole entry): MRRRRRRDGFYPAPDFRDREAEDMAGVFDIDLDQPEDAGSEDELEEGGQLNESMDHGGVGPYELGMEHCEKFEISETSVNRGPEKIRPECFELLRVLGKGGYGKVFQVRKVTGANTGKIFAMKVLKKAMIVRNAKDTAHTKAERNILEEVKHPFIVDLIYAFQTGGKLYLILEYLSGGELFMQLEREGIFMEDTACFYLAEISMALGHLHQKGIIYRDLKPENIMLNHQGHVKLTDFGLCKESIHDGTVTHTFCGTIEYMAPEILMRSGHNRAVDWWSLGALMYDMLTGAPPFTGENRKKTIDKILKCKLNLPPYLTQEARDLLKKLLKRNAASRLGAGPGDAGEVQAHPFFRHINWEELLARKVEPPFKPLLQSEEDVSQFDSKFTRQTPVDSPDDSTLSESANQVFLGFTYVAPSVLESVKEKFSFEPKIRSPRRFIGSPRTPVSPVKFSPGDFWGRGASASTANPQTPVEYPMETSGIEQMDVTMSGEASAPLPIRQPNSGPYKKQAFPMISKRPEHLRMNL
T4 sequence (Q86Z02 whole entry): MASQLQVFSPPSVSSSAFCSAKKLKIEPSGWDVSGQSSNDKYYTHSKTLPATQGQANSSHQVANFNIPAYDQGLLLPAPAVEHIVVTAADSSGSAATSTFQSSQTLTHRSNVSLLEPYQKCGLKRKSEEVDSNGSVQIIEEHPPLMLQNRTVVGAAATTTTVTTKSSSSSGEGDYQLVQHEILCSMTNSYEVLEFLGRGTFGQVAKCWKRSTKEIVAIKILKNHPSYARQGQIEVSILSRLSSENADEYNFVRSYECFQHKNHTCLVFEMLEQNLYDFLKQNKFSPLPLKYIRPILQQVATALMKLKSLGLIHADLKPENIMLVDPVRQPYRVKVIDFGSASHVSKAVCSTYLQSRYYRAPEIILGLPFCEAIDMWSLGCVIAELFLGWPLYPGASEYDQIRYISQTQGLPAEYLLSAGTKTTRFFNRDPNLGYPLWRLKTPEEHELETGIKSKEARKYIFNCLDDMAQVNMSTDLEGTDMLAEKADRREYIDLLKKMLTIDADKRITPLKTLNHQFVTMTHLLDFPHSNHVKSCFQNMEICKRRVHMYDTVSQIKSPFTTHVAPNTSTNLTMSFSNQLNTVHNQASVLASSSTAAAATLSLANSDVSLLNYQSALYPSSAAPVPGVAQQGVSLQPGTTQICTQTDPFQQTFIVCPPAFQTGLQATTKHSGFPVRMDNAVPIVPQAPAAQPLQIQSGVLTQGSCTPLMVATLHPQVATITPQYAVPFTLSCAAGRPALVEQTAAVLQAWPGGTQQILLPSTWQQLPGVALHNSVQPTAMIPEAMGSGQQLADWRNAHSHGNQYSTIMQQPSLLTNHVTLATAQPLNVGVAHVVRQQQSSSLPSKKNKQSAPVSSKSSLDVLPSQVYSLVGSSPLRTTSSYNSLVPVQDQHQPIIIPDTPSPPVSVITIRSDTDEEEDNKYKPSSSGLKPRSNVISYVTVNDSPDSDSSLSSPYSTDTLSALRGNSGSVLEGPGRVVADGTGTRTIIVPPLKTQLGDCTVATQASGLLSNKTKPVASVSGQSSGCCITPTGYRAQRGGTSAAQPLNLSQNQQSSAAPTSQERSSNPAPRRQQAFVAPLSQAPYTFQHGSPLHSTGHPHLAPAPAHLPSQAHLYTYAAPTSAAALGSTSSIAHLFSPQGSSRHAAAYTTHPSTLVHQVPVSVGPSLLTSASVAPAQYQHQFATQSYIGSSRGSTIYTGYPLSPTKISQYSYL
T6 sequence (P06213 28-1382): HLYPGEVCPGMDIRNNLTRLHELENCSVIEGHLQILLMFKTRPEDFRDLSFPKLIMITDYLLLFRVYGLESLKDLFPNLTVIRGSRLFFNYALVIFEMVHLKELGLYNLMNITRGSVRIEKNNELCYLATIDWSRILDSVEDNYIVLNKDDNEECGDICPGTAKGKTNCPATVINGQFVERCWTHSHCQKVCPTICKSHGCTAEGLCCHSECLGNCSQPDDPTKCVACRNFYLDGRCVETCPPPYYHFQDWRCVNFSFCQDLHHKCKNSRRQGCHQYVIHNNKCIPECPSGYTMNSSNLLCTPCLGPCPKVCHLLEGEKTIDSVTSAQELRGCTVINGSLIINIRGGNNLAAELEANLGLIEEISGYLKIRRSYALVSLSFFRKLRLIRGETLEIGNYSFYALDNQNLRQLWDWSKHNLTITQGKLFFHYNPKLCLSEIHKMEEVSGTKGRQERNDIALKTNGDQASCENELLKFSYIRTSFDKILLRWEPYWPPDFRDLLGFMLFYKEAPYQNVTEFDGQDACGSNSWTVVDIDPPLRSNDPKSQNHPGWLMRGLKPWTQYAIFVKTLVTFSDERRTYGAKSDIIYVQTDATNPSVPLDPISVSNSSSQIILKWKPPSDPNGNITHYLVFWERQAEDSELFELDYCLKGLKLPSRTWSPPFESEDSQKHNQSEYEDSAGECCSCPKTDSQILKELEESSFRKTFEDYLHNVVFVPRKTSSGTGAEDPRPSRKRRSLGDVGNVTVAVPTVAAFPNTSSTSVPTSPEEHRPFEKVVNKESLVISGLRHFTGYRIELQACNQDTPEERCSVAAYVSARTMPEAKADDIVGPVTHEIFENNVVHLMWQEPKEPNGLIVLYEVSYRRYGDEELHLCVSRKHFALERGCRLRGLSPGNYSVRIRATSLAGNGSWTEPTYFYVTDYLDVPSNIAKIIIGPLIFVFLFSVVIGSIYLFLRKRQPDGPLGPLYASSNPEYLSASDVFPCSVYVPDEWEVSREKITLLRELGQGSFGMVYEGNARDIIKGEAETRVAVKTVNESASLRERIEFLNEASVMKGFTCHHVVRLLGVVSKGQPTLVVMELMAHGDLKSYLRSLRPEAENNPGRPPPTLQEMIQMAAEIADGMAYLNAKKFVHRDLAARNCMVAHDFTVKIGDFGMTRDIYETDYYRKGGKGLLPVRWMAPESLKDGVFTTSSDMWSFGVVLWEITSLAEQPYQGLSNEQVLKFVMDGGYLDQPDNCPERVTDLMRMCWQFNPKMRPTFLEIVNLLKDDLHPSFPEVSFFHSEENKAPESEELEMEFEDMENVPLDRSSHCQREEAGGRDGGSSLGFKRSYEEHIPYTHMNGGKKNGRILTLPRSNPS
T9 sequence (Q02763 23-1124): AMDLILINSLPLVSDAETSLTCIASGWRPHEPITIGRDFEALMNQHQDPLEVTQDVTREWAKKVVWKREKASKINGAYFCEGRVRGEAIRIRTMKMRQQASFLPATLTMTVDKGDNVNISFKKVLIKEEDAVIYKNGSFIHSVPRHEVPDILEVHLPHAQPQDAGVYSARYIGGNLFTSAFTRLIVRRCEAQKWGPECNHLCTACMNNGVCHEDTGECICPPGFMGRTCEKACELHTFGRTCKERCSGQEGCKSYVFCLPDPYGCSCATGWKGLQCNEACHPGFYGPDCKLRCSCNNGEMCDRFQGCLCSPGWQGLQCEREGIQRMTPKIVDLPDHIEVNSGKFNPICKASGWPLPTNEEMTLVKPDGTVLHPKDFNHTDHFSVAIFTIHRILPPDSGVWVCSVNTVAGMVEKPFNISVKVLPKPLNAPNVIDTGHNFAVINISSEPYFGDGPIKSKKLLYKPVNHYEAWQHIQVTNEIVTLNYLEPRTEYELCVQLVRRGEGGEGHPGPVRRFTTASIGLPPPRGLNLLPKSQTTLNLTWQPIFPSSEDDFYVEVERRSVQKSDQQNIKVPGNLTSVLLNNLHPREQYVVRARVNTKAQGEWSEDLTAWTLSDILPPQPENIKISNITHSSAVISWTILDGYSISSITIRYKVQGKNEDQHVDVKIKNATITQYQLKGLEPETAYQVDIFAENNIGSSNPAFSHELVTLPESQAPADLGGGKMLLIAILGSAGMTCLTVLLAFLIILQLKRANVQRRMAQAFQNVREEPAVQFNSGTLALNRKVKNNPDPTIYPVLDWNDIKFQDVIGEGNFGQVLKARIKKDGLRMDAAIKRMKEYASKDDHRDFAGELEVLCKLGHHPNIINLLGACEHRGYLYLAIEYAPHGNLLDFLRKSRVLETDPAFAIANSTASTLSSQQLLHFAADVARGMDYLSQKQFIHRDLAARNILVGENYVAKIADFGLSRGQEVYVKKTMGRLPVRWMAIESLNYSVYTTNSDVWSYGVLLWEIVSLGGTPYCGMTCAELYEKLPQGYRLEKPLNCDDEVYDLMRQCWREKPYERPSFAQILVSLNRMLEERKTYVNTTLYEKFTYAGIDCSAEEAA
T1 sequence (O96017 whole entry): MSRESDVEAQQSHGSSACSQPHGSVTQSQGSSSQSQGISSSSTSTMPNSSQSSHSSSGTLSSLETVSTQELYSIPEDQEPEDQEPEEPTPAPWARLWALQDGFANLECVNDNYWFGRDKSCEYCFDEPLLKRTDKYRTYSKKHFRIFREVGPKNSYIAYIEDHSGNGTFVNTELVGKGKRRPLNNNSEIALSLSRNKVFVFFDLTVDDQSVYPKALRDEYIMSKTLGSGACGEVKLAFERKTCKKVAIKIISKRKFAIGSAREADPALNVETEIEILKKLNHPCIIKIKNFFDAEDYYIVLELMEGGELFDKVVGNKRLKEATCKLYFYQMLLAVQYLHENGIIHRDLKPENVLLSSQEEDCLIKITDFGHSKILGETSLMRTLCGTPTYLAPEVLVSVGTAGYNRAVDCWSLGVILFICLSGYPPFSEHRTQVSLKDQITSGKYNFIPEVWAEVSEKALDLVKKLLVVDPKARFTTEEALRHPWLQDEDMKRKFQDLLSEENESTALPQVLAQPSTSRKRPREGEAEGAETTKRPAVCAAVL

As for `COCCOc1ccc(-c2cn(-c3ccccc3)c3nc[nH]c(=O)c23)cc1` [DMX-5804, 5-[4-(2-methoxy-ethoxy)-phenyl]-7-phenyl-3,7-dihydro-pyrrolo[2,3-d]pyrimidin-4-one], the remaining activity at 1 µM at CHK2 was 69%; at EPH-B4 it was 100%; at GCK, 36%; at HIPK1, 109%; on IKKb it was 107%; on IR it was 115%. For the same compound, the figures for the remaining activity at 1 µM on S6K1, on SYK and on TIE2 were 121%, 96% and 101%, respectively.

Consider `Oc1ncnc2c1c(-c1ccccc1)cn2-c1ccccc1` [F1386-0303, 5,7-diphenyl-7H-pyrrolo[2,3-d]pyrimidin-4-ol], for which the remaining activity at 1 µM came to 100% on CHK2; 102% on EPH-B4; 39% at GCK; 54% at HIPK1; 102% at IKKb; 118% on IR. Further, the remaining activity at 1 µM on S6K1 turned out to be 105%; at SYK, 112%; on TIE2, 114%.

Regarding `Nc1ncc(C(=O)NC2CN(C(=O)C3CC3)C2)c2ccc(-c3cccc(F)c3)nc12` [GNE-495], the residual activity on CHK2 (1 μM) is given as 102%; at EPH-B4 (1 μM) it was 106%; at GCK (1 μM), 18%; at HIPK1 (1 μM) it was 97%; on IKKb (1 μM) it was 88%; at IR (1 μM) it was 107%. Moreover, the figures for the residual activity on S6K1 (1 μM), on SYK (1 μM) and on TIE2 (1 μM) were 43%, 94% and 86%, respectively.

With `O=C1Nc2ccc(I)cc2/C1=C/c1cc(Br)c(O)c(Br)c1` [GW5074], the remaining activity at 1 µM at CHK2 stood at 46%; at EPH-B4, 94%; on GCK, 60%; at HIPK1, 84%; on IKKb it was 73%; on IR, 26%. In addition, the remaining activity at 1 µM at S6K1 is 87%; on SYK, 72%; on TIE2 it was 98%.

For `O=C1Cc2c([nH]c3ccc(Br)cc23)-c2ccccc2N1` [Kenpaullone], the remaining activity at 1 µM is 25% at CHK2; 85% on EPH-B4; 95% on GCK; 102% on HIPK1; 103% on IKKb; 43% on IR. In addition, the figures for the remaining activity at 1 µM at S6K1, on SYK and on TIE2 were 97%, 87% and 98%, respectively.

The residual activity is the signal under treatment as a percentage of the control signal.

Source of the values: article PMC6458995, “MAP4K4 Inhibition Promotes Survival of Human Stem Cell-Derived Cardiomyocytes and Reduces Infarct Size In Vivo” (Cell Stem Cell, 2019).
